Experimental data taken from US4681882A, “4-alkoxy-pyrido[2,3-d]pyrimidine derivatives” (Godecke Aktiengesellschaft, priority 1984, dated 1987).

Legend:
[1] = test system: arteria coronaria vessel rings; assay: Inhibition of K^+ depolarization contraction of isolated vessel rings (a. coronaria) in the organ bath; assay type: cell-based; conditions: rabbit a. coronaria rings, mean diameter 0.5-1.0 mm, potassium depolarization in Tyrode's solution, read-out: Concentration (IC50) effecting a semimaximal inhibition of the K^+ -depolarization contraction of vessel rings, a. coronaria
Excerpt: (§1) Of rabbits (vessel ring segments of arteria basilaris and a. coronaria are mounted in an organ bath in a way to allow the measurement of isometric contractions. Contractile activity is elicited by a potassium depolarization in Tyrode's solution. This experimental set-up is a well-known standard model for the identification of substances blocking the calcium channels opened during the potassium depolarization (Fleckenstein, Calcium Antagonism in Heart and Smooth Muscle, J. Wiley & Sons, 1983).
(§2) Concentrations (IC50, mol/l) of compounds effecting a semimaxi-
(§3) mal inhibition of the K^+ -depolarization contraction of vessel
(§4) in the organ bath. A. bas. = arteria basilaris, a cor. = arteria
(§5) coronaria of the rabbit; mean diameter 0.5-1.0 mm.

[2] = test system: arteria basilaris vessel rings; assay: Inhibition of K^+ depolarization contraction of isolated vessel rings (a. basilaris) in the organ bath; assay type: cell-based; conditions: rabbit a. basilaris rings, mean diameter 0.5-1.0 mm, potassium depolarization in Tyrode's solution, read-out: Concentration (IC50) effecting a semimaximal inhibition of the K^+ -depolarization contraction of vessel rings, a. basilaris
Excerpt: as §1, §2, §3, §4, §5

IC50 [1] [nM] | IC50 [2] [nM] | Compound
34 | 39 | COCCOC(=O)C1=C(C)Nc2ncnc(OC(C)C)c2C1c1cccc([N+](=O)[O-])c1 (racemic) [Example 1b, (±)-5,8-Dihydro-4-isopropoxy-7-methyl-5-(3-nitrophenyl)pyrido[2,3-d]pyrimidine-6-carboxylic acid(2-methoxy)ethyl ester]
45 | 40 | COC(=O)C1=C(C)Nc2ncnc(OC(C)C)c2C1c1ccccc1C(F)(F)F (racemic) [Example 1c, (±)-5,8-Dihydro-4-isopropoxy-7-methyl-5-(2-trifluromethylphenyl)pyrido[2,3-d]pyrimidine-6-carboxylic acid methyl ester]
160 | 33 | CC1=C(C(=O)OC(C)C)C(c2cccc([N+](=O)[O-])c2)c2c(ncnc2OC(C)C)N1 (racemic) [Example 1d, (±)-5,8)Dihydro-4-isopropoxy-7-methyl-5-(3-nitrophenyl)pyrido[2,3-d]pyrimidine-6-carboxylic acid isopropyl ester]
73 | 2800 | CCOC(=O)C1=C(N)Nc2ncnc(OC(C)C)c2C1c1ccccc1OC (racemic) [Example 1e, (±)-7-Amino-5,8-dihydro-4-isopropoxy-5-(2-methoxyphenyl)pyrido[2,3-d]pyrimidine-6-carboxylic acid ethyl ester]
34 | 38 | CCOC(=O)C1=C(C)Nc2ncnc(OC(C)C)c2C1c1ccccc1C(F)(F)F (racemic) [Example 1f, (±)-5,8-Dihydro-4-isopropoxy-7-methyl-5-(2-trifluoromethylphenyl)pyrido[2,3-d]pyrimidine-6-carboxylic acid ethyl ester]
230 | 28 | COC(=O)C1=C(C)Nc2ncnc(OC(C)C)c2C1c1cccc([N+](=O)[O-])c1 (racemic) [Example 1g, (±)-5,8-Dihydro-4-isopropoxy-7-methyl-5-(3-nitrophenyl)pyrido[2,3-d]pyrimidine-6-carboxylic acid methyl ester]
140 | 2.5 | COc1ncnc2c1C(c1cccc([N+](=O)[O-])c1)C(C(=O)OC(C)C)=C(C)N2 (racemic) [Example 2, (±)-5,8-Dihydro-4-methoxy-7-methyl-5-(3-nitrophenyl)pyrido[2,3-d]pyrimidine-6-carboxylic acid isopropyl ester]
